Reference: the supplement of paper PMC11551840

Experiments:
Assay in all cases: IC50 (cell viability, 72 h) (ln(µM))
[1] = system: ORL-174
Method: (§1)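 Discovery screen of OSCC cell lines in 1,536-well plates. Cells were treated 24 h after seeding with 7 concentrations spanning a 1,000-fold half-log range for 72 h, and viability was read by CellTiter-Glo 2.0 and normalised to DMSO (1) and medium-only (0) controls. IC50 comes from a two-parameter logistic nonlinear mixed-effects fit and is reported as natural log of IC50 in µM.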

[2] = system: ORL-150
Method: as §1

[3] = system: BICR10
Method: as §1

[4] = system: PE-CA-PJ15
Method: as §1

[5] = system: ORL-156
Method: as §1

[6] = system: ORL-214
Method: as §1

[7] = system: ORL-48
Method: as §1

[8] = system: SAS
Method: as §1

[9] = system: ORL-136
Method: as §1

[10] = system: HO-1-u-1
Method: as §1

[11] = system: ORL-153
Method: as §1

[12] = system: ORL-215
Method: as §1

[13] = system: ORL-207
Method: as §1

[14] = system: ORL-188
Method: as §1

[15] = system: SCC-9
Method: as §1

[16] = system: ORL-195
Method: as §1

[17] = system: ORL-166
Method: as §1

[18] = system: ORL-204
Method: as §1

[19] = system: HSC-2
Method: as §1

[20] = system: ORL-115
Method: as §1

[21] = system: HSC-4
Method: as §1

Structure (SMILES) | IC50 (ln) [1] | IC50 (ln) [2] | IC50 (ln) [3] | IC50 (ln) [4] | IC50 (ln) [5] | IC50 (ln) [6] | IC50 (ln) [7] | IC50 (ln) [8] | IC50 (ln) [9] | IC50 (ln) [10] | IC50 (ln) [11] | IC50 (ln) [12] | IC50 (ln) [13] | IC50 (ln) [14] | IC50 (ln) [15] | IC50 (ln) [16] | IC50 (ln) [17] | IC50 (ln) [18] | IC50 (ln) [19] | IC50 (ln) [20] | IC50 (ln) [21]
Cc1cc(-c2nc(-c3ccc(OC(F)(F)F)cc3)no2)nn1Cc1ccnc(N2CCN(C3CC3)CC2)c1 [BAY-87-2243] | -0.785 | -2.36 | -1.01 | -1.76 | -0.734 | -0.338 | -1.95 | -3.51 | -0.901 | -1.24 | -0.683 | -2.31 | -2.38 | -0.131 | -3.5 | -1.57 | -2.29 | -2.77 | -1.04 | -5.09 | -5.92
CC[C@@H]1C(=O)N(C)c2cnc(Nc3ccc(C(=O)NC4CCN(C)CC4)cc3OC)nc2N1C1CCCC1 [BI-2536] | -2.58 | -3.5 | -2.78 | -0.628 | -2.91 | -2.28 | -1.8 | -1.93 | 1.66 | -2.33 | -2.08 | -3.45 | -2.92 | -2.94 | 0.0591 | -2.26 | -3.02 | -0.226 | -2.87 | -2.1 | -1.33
CC(C)C[C@H](NC(=O)[C@H](Cc1ccccc1)NC(=O)c1cnccn1)B(O)O [Bortezomib] | -5.44 | -4.88 | -4.95 | -4.28 | -4.46 | -5.37 | -4.47 | -5.88 | -4.79 | -5.69 | -4.84 | -5.32 | -5.3 | -5.03 | -4.18 | -5.04 | -5.43 | -4.52 | -5.55 | -4.36 | -4.5
CC[C@@]1(O)C(=O)OCc2c1cc1n(c2=O)Cc2cc3ccccc3nc2-1 [Camptothecin] | -2.91 | -3.04 | -1.45 | -2.24 | -2.15 | -4.76 | -2.57 | -4.38 | -1.37 | -0.864 | -3.34 | -2.87 | -4.09 | -3.95 | 1.24 | -2.2 | -3.18 | -3.82 | -4 | -1.73 | -3.06
Cc1c2oc3c(C)ccc(C(=O)N[C@@H]4C(=O)N[C@H](C(C)C)C(=O)N5CCC[C@H]5C(=O)N(C)CC(=O)N(C)[C@@H](C(C)C)C(=O)O[C@@H]4C)c3nc-2c(C(=O)N[C@@H]2C(=O)N[C@H](C(C)C)C(=O)N3CCC[C@H]3C(=O)N(C)CC(=O)N(C)[C@@H](C(C)C)C(=O)O[C@@H]2C)c(N)c1=O [Dactinomycin] | -5.84 | -5.32 | -3.88 | -4.55 | -5.7 | -5.57 | -5.43 | -4.65 | -4.38 | -5.18 | -6.27 | -4.6 | -5.32 | -5.69 | -2.9 | -5.67 | -6.04 | -4.99 | -5.7 | -4.09 | -3.96
CCc1cnn2c(NCc3ccc[n+]([O-])c3)cc(N3CCCC[C@H]3CCO)nc12 [Dinaciclib] | -4.02 | -3.93 | -2.5 | -3.29 | -4.06 | -4.09 | -3.44 | -4.47 | -2.65 | -3.83 | -3.5 | -4.15 | -3.83 | -4.08 | -1.35 | -3.57 | -4.64 | -3.8 | -4.36 | -4.03 | -3.41
CC(=O)O[C@@]12CO[C@@H]1C[C@H](O)[C@@]1(C)C(=O)[C@H](O)C3=C(C)[C@@H](OC(=O)[C@H](O)[C@@H](NC(=O)OC(C)(C)C)c4ccccc4)C[C@@](O)([C@@H](OC(=O)c4ccccc4)[C@H]21)C3(C)C [Docetaxel] | -6.19 | -6.63 | -5.07 | -3.61 | -4.72 | -6.46 | -6.36 | -3.91 | -2.74 | -4.77 | -5.35 | -6.3 | -6.77 | -7 | -3.63 | -5.11 | -5.53 | -5.44 | -6.54 | -4.57 | -4.06
CCNC(=O)c1noc(-c2cc(C(C)C)c(O)cc2O)c1-c1ccc(CN2CCOCC2)cc1 [Luminespib] | -4.47 | -3.97 | -3.95 | -2.87 | -3.29 | -4.45 | -4.29 | -3.87 | -3.13 | -4.16 | -3.79 | -3.76 | -4.84 | -4.38 | -2.72 | -4.03 | -2.05 | -2.64 | -4.34 | -1.26 | -2.55
CC(C)C[C@@H](C=O)NC(=O)[C@H](CC(C)C)NC(=O)[C@H](CC(C)C)NC(=O)OCc1ccccc1 [MG-132] | -1.61 | -0.689 | -0.312 | -0.875 | -0.951 | -1.68 | -1.04 | -1.28 | -1.24 | -1.98 | -1.31 | -1.39 | -1.48 | -1.21 | -0.805 | -1.32 | -1.11 | -1.04 | -1.34 | -0.897 | -0.832
COc1ncc(-c2ccc3nccc(-c4ccnnc4)c3c2)cc1NS(=O)(=O)c1ccc(F)cc1F [Omipalisib] | -3.91 | -4.18 | -2.02 | -1.36 | -3.31 | -3.91 | -3.43 | -1.24 | -2.66 | -3.13 | – | -2.45 | -3.51 | -3.88 | -1.11 | -3.16 | -2.96 | -2.59 | -4.69 | -1.58 | -0.985
CC(=O)O[C@H]1C(=O)[C@@]2(C)[C@H]([C@H](OC(=O)c3ccccc3)[C@]3(O)C[C@H](OC(=O)[C@H](O)[C@@H](NC(=O)c4ccccc4)c4ccccc4)C(C)=C1C3(C)C)[C@]1(OC(C)=O)CO[C@@H]1C[C@@H]2O [Paclitaxel] | -5.25 | -6.11 | -4.85 | -2.85 | -4.99 | -5.78 | -5.51 | -3.47 | -2.48 | -3.72 | -4.87 | -5.5 | -5.88 | -6.34 | -3.62 | -4.66 | -5.21 | -4.96 | -5.85 | -4.44 | -2.73
